Test results published in patent US20240041042A1, “1-(PYRIDYL)-5-AZINYLPYRAZOLE DERIVATIVES, AND THEIR USE FOR CONTROL OF UNDESIRED PLANT GROWTH” (Bayer Aktiengesellschaft, priority 2020, published 2024).

Assays:
Format in all cases: in vivo
Avena fatua (AVEFA) [1] = experiment: Pre-emergence herbicidal action against AVEFA; settings: visual scoring after about 3 weeks vs untreated controls
Outline: (§1)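 Pre-emergence soil-surface spray of compound, formulated as wettable powder or emulsion concentrate, in aqueous suspension or emulsion with 0.5% additive (600 l/ha; rate 320 g/ha or less). Activity rated visually after roughly 3 weeks in the greenhouse as a percentage of untreated controls, 0% meaning no difference.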

[2] = test system: Polygonum convolvulus (POLCO); experiment: Pre-emergence herbicidal action against POLCO
Outline: as §1

Zea mays (ZEAMX) = settings: crop plant compatibility, 80 g/ha, effect vs untreated controls
Outline: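 Foliar application at the one-leaf stage: WP/EC formulation, 0.5% additive, 600 l/ha water. Greenhouse-grown in sandy loam. Endpoint is visual % injury relative to untreated controls at about 3 weeks.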

[3] = test system: Verconica persica (VERPE); experiment: Post-emergence herbicidal action against VERPE
Outline: (§2)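 Greenhouse plants sprayed at the one-leaf stage, 2–3 weeks after sowing, with WP or EC formulations plus 0.5% additive at 600 l/ha water. Activity rated visually after about 3 weeks versus untreated controls (100% = dead, 0% = like control), at 320 g/ha or lower.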

[4] = test system: Pharbitis purpurea (PHBPU); experiment: Pre-emergence herbicidal action against PHBPU; settings: dosage 320 g/ha
Outline: as §1

[5] = test system: Echinochloa crus-galli (ECHCG); experiment: Post-emergence herbicidal action against ECHCG
Outline: as §2

[6] = test system: Verconica persica (VERPE); experiment: Pre-emergence herbicidal action against VERPE; settings: dosage 320 g/ha
Outline: as §1

Lolium rigidum (LOLRI) [7] = experiment: Pre-emergence herbicidal action against LOLRI
Outline: as §1

[8] = test system: Amaranthus retroflexus (AMARE); experiment: Pre-emergence herbicidal action against AMARE; settings: visual scoring after about 3 weeks vs untreated controls
Outline: as §1

Setaria viridis (SETVI) [9] = experiment: Pre-emergence herbicidal action against SETVI
Outline: as §1

[10] = test system: Alopecurus myosuroides (ALOMY); experiment: Pre-emergence herbicidal action against ALOMY; settings: scored visually after about 3 weeks, 100% = plants have died
Outline: as §1

Viola tricolor (VIOTR) [11] = experiment: Pre-emergence herbicidal action against VIOTR
Outline: as §1

[12] = test system: Echinochloa crus-galli (ECHCG); experiment: Pre-emergence herbicidal action against ECHCG
Outline: as §1

[13] = test system: Alopecurus myosuroides (ALOMY); experiment: Post-emergence herbicidal action against ALOMY; settings: visual rating about 3 weeks after treatment vs untreated controls (100% = plants have died, 0% = like control plants)
Outline: as §2

Lolium rigidum (LOLRI) [14] = experiment: Post-emergence herbicidal action against LOLRI
Outline: as §2

Setaria viridis (SETVI) [15] = experiment: Post-emergence herbicidal action against SETVI
Outline: as §2

[16] = test system: Matricaria inodora (MATIN); experiment: Post-emergence herbicidal action against MATIN
Procedure: Seeds of monocotyledonous and dicotyledonous weeds and crop plants are placed in sandy loam in plastic or organic planting pots, covered with soil and cultivated in a greenhouse under controlled growth conditions. 2 to 3 weeks after sowing, the test plants are treated at the one-leaf stage. The compounds of the invention, formulated in the form of wettable powders (WP) or as emulsion concentrates (EC), are then sprayed onto the green parts of the plants as aqueous suspension or emulsion with addition of 0.5% additive at a water application rate of 600 l/ha (converted). After the test plants have been kept in the greenhouse under optimum growth conditions for about 3 weeks, the activity of the preparations is rated visually in comparison to untreated controls. For example, 100% activity=the plants have died, 0% activity=like control plants.
Tables B1 to B13 below show the effects of selected compounds of the general formula (I) according to Table 1 on various harmful plants and at an application rate corresponding to 320 g/ha or lower, which were obtained by the experimental procedure mentioned above. The appendices “a”, “b” and “c” give differentiation by dosage used with otherwise the same harmful plants tested.

[17] = test system: Matricaria inodora (MATIN); experiment: Pre-emergence herbicidal action against MATIN; settings: dosage 320 g/ha
Outline: as §1

Avena fatua (AVEFA) [18] = experiment: Post-emergence herbicidal action against AVEFA; settings: visual rating about 3 weeks after treatment
Outline: as §2

Viola tricolor (VIOTR) [19] = experiment: Post-emergence herbicidal action against VIOTR
Outline: as §2

[20] = test system: Pharbitis purpurea (PHBPU); experiment: Post-emergence herbicidal action against PHBPU
Outline: as §2

Structure (SMILES) | Pre-emergence action against AVEFA in % (Avena fatua (AVEFA) [1]; 320 g/ha) [%] | Pre-emergence action against POLCO in % ([2]; dosage 320 g/ha) [%] | Post-emergence action against ZEAMX in % (Zea mays (ZEAMX)) [%] | Post-emergence action against VERPE in % ([3]; 320 g/ha, VERPE) [%] | Post-emergence action against VERPE in % ([3]; dosage 80 g/ha) [%] | Pre-emergence action against PHBPU in % [4] [%] | Post-emergence action against ECHCG in % ([5]; dosage 80 g/ha) [%] | Post-emergence action against ECHCG in % ([5]; dosage 320 g/ha) [%] | Pre-emergence action against VERPE in % [6] [%] | Pre-emergence action against LOLRI in % (Lolium rigidum (LOLRI) [7]; dosage 80 g/ha) [%] | Pre-emergence action against LOLRI in % (Lolium rigidum (LOLRI) [7]; dosage 320 g/ha) [%] | Pre-emergence action against AMARE in % ([8]; 80 g/ha) [%] | Pre-emergence action against AMARE in % ([8]; 320 g/ha) [%] | Pre-emergence action against SETVI in % (Setaria viridis (SETVI) [9]; dosage 320 g/ha) [%] | Pre-emergence action against ALOMY ([10]; 80 g/ha) [%] | Pre-emergence action against ALOMY ([10]; 320 g/ha) [%] | Pre-emergence action against VIOTR in % (Viola tricolor (VIOTR) [11]; 320 g/ha, Viola tricolor) [%] | Pre-emergence action against VIOTR in % (Viola tricolor (VIOTR) [11]; dosage 80 g/ha) [%] | Pre-emergence action against ECHCG in % ([12]; dosage 80 g/ha) [%] | Pre-emergence action against ECHCG in % ([12]; dosage 320 g/ha) [%] | other results
Cc1cccnc1-n1nc(OCC(=O)O)c(Cl)c1-c1ccc(F)nc1 [Example I-323] | 100 | 100 | 0 | 90 | 90 | 90 | 90 | 90 | 100 | 100 | 100 | 100 | 100 | 100 | 100 | 100 | 100 | 100 | 90 | 100 | Pre-emergence action against AVEFA in % (Avena fatua (AVEFA) [1]; 80 g/ha): 90%; Post-emergence action against ALOMY in % ([13]; 80 g/ha): 100%; Post-emergence action against ALOMY in % ([13]; 320 g/ha): 100%; Post-emergence action against LOLRI in % (Lolium rigidum (LOLRI) [14]; dosage 80 g/ha): 90%; Post-emergence action against LOLRI in % (Lolium rigidum (LOLRI) [14]; dosage 320 g/ha): 90%; Post-emergence action against SETVI in % (Setaria viridis (SETVI) [15]; dosage 320 g/ha): 90%; Post-emergence action against MATIN in % ([16]; dosage 320 g/ha): 90%; Pre-emergence action against MATIN in % [17]: 100%; Post-emergence action against AVEFA in % (Avena fatua (AVEFA) [18]; 80 g/ha): 90%; Post-emergence action against AVEFA in % (Avena fatua (AVEFA) [18]; 320 g/ha): 90%; Post-emergence action against VIOTR in % (Viola tricolor (VIOTR) [19]; 80 g/ha): 90%; Post-emergence action against VIOTR in % (Viola tricolor (VIOTR) [19]; 320 g/ha): 90%; Post-emergence action against PHBPU in % ([20]; dosage 320 g/ha): 80%
CCOC(=O)COc1nn(-c2ncccc2C)c(-c2ccc(F)nc2)c1Cl [Example I-316] | 100 | 100 | 0 | 90 | 90 | 90 | 90 | 90 | 100 | 100 | 100 | 100 | 100 | 100 | 90 | 100 | 100 | 100 | 100 | 100 | Pre-emergence action against POLCO in % ([2]; dosage 80 g/ha): 100%; Pre-emergence action against SETVI in % (Setaria viridis (SETVI) [9]; dosage 80 g/ha): 100%; Post-emergence action against ALOMY in % ([13]; 80 g/ha): 100%; Post-emergence action against ALOMY in % ([13]; 320 g/ha): 100%; Post-emergence action against LOLRI in % (Lolium rigidum (LOLRI) [14]; dosage 80 g/ha): 100%; Post-emergence action against LOLRI in % (Lolium rigidum (LOLRI) [14]; dosage 320 g/ha): 100%; Post-emergence action against SETVI in % (Setaria viridis (SETVI) [15]; dosage 80 g/ha): 90%; Post-emergence action against SETVI in % (Setaria viridis (SETVI) [15]; dosage 320 g/ha): 90%; Post-emergence action against MATIN in % ([16]; dosage 80 g/ha): 80%; Post-emergence action against MATIN in % ([16]; dosage 320 g/ha): 90%; Pre-emergence action against MATIN in % [17]: 100%; Post-emergence action against AVEFA in % (Avena fatua (AVEFA) [18]; 80 g/ha): 90%; Post-emergence action against AVEFA in % (Avena fatua (AVEFA) [18]; 320 g/ha): 100%; Post-emergence action against VIOTR in % (Viola tricolor (VIOTR) [19]; 80 g/ha): 90%; Post-emergence action against VIOTR in % (Viola tricolor (VIOTR) [19]; 320 g/ha): 90%; Post-emergence action against PHBPU in % ([20]; dosage 80 g/ha): 90%; Post-emergence action against PHBPU in % ([20]; dosage 320 g/ha): 90%
